Experimental findings from ChEMBL document CHEMBL1821677, “Identification of novel allosteric modulators for the G-protein coupled US28 receptor of human cytomegalovirus” (Bioorg Med Chem Lett, 2011) are described below.

Data set [1] is described as follows: Inverse agonist activity at HCMV TB40/E US28 expressed in human HEK cells assessed as Elk-1 activation preincubated for 1 hrs measured after 20 to 24 hrs by luciferase reporter gene assay. It counts as functional, cell-based. The conditions noted are these: Human betaherpesvirus 5, TB40/E, HEK293. (In general: Reporter assays use an easily measured gene product as a stand-in for the process of interest.)

In data set [2] the test system is G-protein coupled receptor homolog US28 (Human cytomegalovirus). The data set can be described thus: Efficacy at HCMV TB40/E US28 expressed in human HEK cells assessed as Elk-1 activation preincubated for 1 hrs measured after 20 to 24 hrs by PathDetect trans Elk-1 reporter gene assay relative to control. The conditions noted are these: Human betaherpesvirus 5, HEK293.

Data set [3] addresses D(2) dopamine receptor (Homo sapiens) (UniProt P14416). As to the kind of experiment: Binding affinity to human dopamine D2L receptor expressed in HEK cells assessed as Elk-1 activation preincubated for 1 hrs measured after 20 to 24 hrs by PathDetect trans Elk-1 reporter gene assay. It counts as cell-based. The conditions noted are these: HEK293.
Data set [4] can be described thus: Cytotoxicity against mock transfected human HEK cells at 10 uM after 20 to 24 hrs by Cell titer cell proliferation assay. It counts as cell-based. The conditions noted are these: hek293, 10 µM.
The target in data set [5] is D(2) dopamine receptor (Homo sapiens) (UniProt P14416). The data set can be described thus: Binding affinity to dopamine D2L receptor.
D(2) dopamine receptor (Homo sapiens), sequence (P14416 whole entry): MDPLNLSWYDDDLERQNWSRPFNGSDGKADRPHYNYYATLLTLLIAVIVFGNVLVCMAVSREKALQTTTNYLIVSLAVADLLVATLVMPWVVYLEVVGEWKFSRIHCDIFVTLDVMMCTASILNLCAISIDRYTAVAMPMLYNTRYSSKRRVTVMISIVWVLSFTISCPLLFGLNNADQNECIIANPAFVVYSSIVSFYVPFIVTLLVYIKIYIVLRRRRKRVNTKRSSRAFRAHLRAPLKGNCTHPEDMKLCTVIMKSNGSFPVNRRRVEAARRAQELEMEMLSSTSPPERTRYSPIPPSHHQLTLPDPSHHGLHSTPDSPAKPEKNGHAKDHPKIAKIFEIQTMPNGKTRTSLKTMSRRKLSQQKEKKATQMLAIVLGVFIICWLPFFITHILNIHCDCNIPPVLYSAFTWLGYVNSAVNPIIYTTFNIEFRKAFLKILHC

The source made the active and inactive calls. The rule behind the calls is not given here.

For the compound `CCCC[C@H]1Cc2ccc(Cl)cc2[C@@H](c2ccccc2)N1` (relative stereo), the EC50 was 7800 nM in data set [1] (read-out: EC50) and 7760 nM in data set [1] (read-out: pEC50 (converted)). In addition, the Efficacy in data set [2] turned out to be 12%.
The matching figures for `CSc1ccc2c(c1)C(N1CCN(C)CC1)Cc1ccccc1S2` (configuration not stated) [METITEPINE]: 350 nM, 355 nM and 10%.
Regarding `CCCC[C@H]1Cc2ccccc2[C@@H](c2ccccc2)N1` (relative stereo), the EC50 in data set [1] (read-out: EC50) was 280 nM; in data set [1] (read-out: pEC50 (converted)) it was 275 nM. For the same compound, the result in data set [3] was Active. In addition, the Efficacy in data set [2] was found to be 22%.
As for `CC1(COC(=O)c2ccccc2)Cc2ccccc2CN1C(=O)c1ccccc1` (configuration not stated), the EC50 was 8500 nM in data set [1] (read-out: EC50) and 8510 nM in data set [1] (read-out: pEC50 (converted)). Moreover, the Activity entry in data set [4] is listed as “Toxic”. Besides, the Efficacy in data set [2] was -62%.
The matching figures for `CC1(COC(=O)c2ccco2)Cc2ccccc2CN1C(=O)c1ccco1` (configuration not stated): 7400 nM, 7410 nM, “Non-toxic” and -18%.
Turning to `CC1(CO)Cc2ccccc2C(=O)N1c1ccccc1` (configuration not stated), the figures for the EC50 in data set [1] (read-out: EC50) and in data set [1] (read-out: pEC50 (converted)) were 4400 nM and 4370 nM, respectively. The Efficacy in data set [2] stood at 41%.
In the case of `CCCCCCCCCC(=O)N(CCN(C)C)CC1(C)Cc2ccccc2C(=O)N1` (configuration not stated), the EC50 in data set [1] (read-out: EC50) was 1500 nM; in data set [1] (read-out: pEC50 (converted)), 1510 nM. In data set [4], the Activity result is reported as “Non-toxic”. In addition, the Efficacy in data set [2] is -20%.
In the same order, the values of `CC1(CCO)Cc2ccccc2C(=O)N1c1ccccc1` (configuration not stated) are 1000 nM, 1020 nM, “Non-toxic” and -14%.
In the same order, the values of `CC1(CCOC(=O)c2ccccc2)Cc2ccccc2CN1C(=O)c1ccccc1` (configuration not stated) are 13500 nM, 13500 nM, “Toxic” and -70%.
As for `N#CC(CCCN1CCC(O)(c2ccc(Cl)cc2)CC1)(c1ccccc1)c1ccccc1` [BERLEX COMPOUND], the EC50 in data set [1] (read-out: EC50) is 4500 nM; in data set [1] (read-out: pEC50 (converted)), 4570 nM. This compound also came in with an Activity in data set [5] of 2 µM. Further, the Efficacy in data set [2] is -22%.
In the case of `CCCC[C@H]1Cc2ccc(F)cc2[C@@H](c2ccccc2)N1` (relative stereo), the EC50 was 1800 nM in data set [1] (read-out: EC50) and 1780 nM in data set [1] (read-out: pEC50 (converted)). Further, the Efficacy in data set [2] was found to be 15%.
On to `CCC[C@H]1Cc2c(Cl)cccc2[C@@H](c2ccccc2)N1` (relative stereo), for which the EC50 in data set [1] (read-out: EC50) was 1500 nM; in data set [1] (read-out: pEC50 (converted)) it was 1550 nM. Further, the Efficacy in data set [2] amounted to 27%.
For the compound `CCCC[C@@H]1Cc2ccc(F)cc2[C@@H](c2ccccc2)N1` (relative stereo), the EC50 in data set [1] (read-out: EC50) and in data set [1] (read-out: pEC50 (converted)) was 2000 nM each time. The Efficacy in data set [2] was determined as 15%.
Take `CC1(CCOC(=O)Cc2ccccc2)Cc2ccccc2CN1C(=O)Cc1ccccc1` (configuration not stated): the figures for the EC50 in data set [1] (read-out: EC50) and in data set [1] (read-out: pEC50 (converted)) were 7500 nM and 7590 nM, respectively. For the same compound, the Activity entry in data set [4] is reported as “Toxic”. Also, in data set [2], the Efficacy was -51%.
The matching figures for `CC1(COC(=O)Cc2ccccc2)Cc2ccccc2CN1C(=O)Cc1ccccc1` (configuration not stated): 3400 nM, 3470 nM, “Non-toxic” and -37%.
For the compound `CCCC[C@H]1Cc2c(Cl)cccc2[C@@H](c2ccccc2)N1` (relative stereo), the EC50 in data set [1] (read-out: EC50) was 130 nM; in data set [1] (read-out: pEC50 (converted)) it was 129 nM. The result in data set [3] was Active. Also, the Efficacy in data set [2] amounted to 21%.
With `CCCC[C@@H]1Cc2c(Cl)cccc2[C@@H](c2ccccc2)N1` (relative stereo), the EC50 in data set [1] (read-out: EC50) is 1400 nM; in data set [1] (read-out: pEC50 (converted)), 1410 nM. For the same compound, the Efficacy in data set [2] was 16%.
In the same order, the values of `CCCCCCCCCC(=O)N(CCN(C)C)C1CCCCC12Cc1ccccc1C(=O)N2` (configuration not stated) are 4800 nM, 4790 nM and -22%.
On to `CCCCCC[C@H]1Cc2c(Cl)cccc2[C@@H](c2ccccc2)N1` (relative stereo), for which the values for the EC50 in data set [1] (read-out: EC50) and in data set [1] (read-out: pEC50 (converted)) were 2300 nM and 2290 nM, respectively. Further, in data set [2], the Efficacy is 21%.
